test system: not given; experiment: not given; details: not given

| Compound | melting point |
| --- | --- |
| CNCC1COc2ccc(S(=O)(=O)c3ccccc3)cc2O1 (racemic) [Compound 1, (+−)-(7-Benzenesulfonyl-2,3-dihydro-benzo[1,4]dioxin-2-ylmethyl)-methyl-amine] | 198 to 199.4 °C |
| O=S(=O)(c1cccc(F)c1)c1ccc2c(c1)O[C@H](CN1CC1)CO2 (stereo in doubt) | 215.4 to 217.2 °C |
| O=S(=O)(c1ccccc1)c1ccc2c(c1)O[C@@H](CN1CC1)CO2 (stereo in doubt) | 203.9 to 206.6 °C |
| O=S(=O)(c1cccc(F)c1)c1ccc2c(c1)O[C@@H](CNCc1ccccc1)CO2 (stereo in doubt) [Compound 11, Benzyl-[7-(3-fluoro-benzenesulfonyl)-2,3-dihydro-benzo[1,4]dioxin-2-ylmethyl]-amine] | 195.1 to 197.1 °C |
| CNC[C@H]1COc2ccc(S(=O)(=O)c3ccc(C)cc3)cc2O1 (stereo in doubt) [Compound 12, Methyl-[7-(toluene-4-sulfonyl)-2,3-dihydro-benzo[1,4]dioxin-2-ylmethyl]-amine] | 213 to 214.1 °C |
| CCNC[C@@H]1COc2ccc(S(=O)(=O)c3cccc(F)c3)cc2O1 (stereo in doubt) [Compound 13, Ethyl-[7-(3-fluoro-benzenesulfonyl)-2,3-dihydro-benzo[1,4]dioxin-2-ylmethyl]-amine] | 247.5 to 251.3 °C |
| CN(C)C[C@@H]1COc2ccc(S(=O)(=O)c3cccc(F)c3)cc2O1 (stereo in doubt) [Compound 14, [7-(3-Fluoro-benzenesulfonyl)-2,3-dihydro-benzo[1,4]dioxin-2-ylmethyl]-dimethyl-amine] | 228.7 to 231.3 °C |
| CC(C)NC[C@@H]1COc2ccc(S(=O)(=O)c3cccc(F)c3)cc2O1 (stereo in doubt) [Compound 15, [7-(3-Fluoro-benzenesulfonyl)-2,3-dihydro-benzo[1,4]dioxin-2-ylmethyl]-isopropyl-amine] | 242.4 to 243.8 °C |
| CNC[C@H]1COc2ccc(S(=O)(=O)c3ccccc3)cc2O1 [Compound 2, (7-Benzenesulfonyl-2,3-dihydro-benzo[1,4]dioxin-2--(S)-ylmethyl)-methyl-amine] | 240 to 243.6 °C |
| CNC[C@@H]1COc2cc(S(=O)(=O)c3ccccc3)ccc2O1 [Compound 4, (6-Benzenesulfonyl-2,3-dihydro-benzo[1,4]dioxin-2-(R)-ylmethyl)-methyl-amine] | 219.7 to 225.4 °C |
| CNC[C@H]1COc2cc(S(=O)(=O)c3ccccc3)ccc2O1 [Compound 5, (6-Benzenesulfonyl-2,3-dihydro-benzo[1,4]dioxin-2-(S)-ylmethyl)-methyl-amine] | 218.2 to 220.5 °C |
| CNC[C@@H]1COc2ccc(S(=O)(=O)c3cccc(F)c3)cc2O1 [Compound 8, [7-(3-Fluoro-benzenesulfonyl)-2,3-dihydro-benzo[1,4]dioxin-2-(R)-ylmethyl]-methyl-amine] | 250.1 to 254.3 °C |
| NC[C@H]1COc2ccc(S(=O)(=O)c3cccc(F)c3)cc2O1 [Compound 9, C-[7-(3-Fluoro-benzenesulfonyl)-2,3-dihydro-benzo[1,4]dioxin-2-(S)-yl]-methylamine] | 224.9 to 227.9 °C |
| O=S(=O)(c1ccccc1)c1ccc2c(c1)O[C@H](CN1CCCC1)CO2 [Compound 10, 1-(7-Benzenesulfonyl-2,3-dihydro-benzol[1,4]dioxin-2-(R)-ylmethyl)-pyrrolidine] | 75.8 to 112.7 °C |

Further lines, results first:

| melting point | Compound |
| --- | --- |
| 100.8 to 108.3 °C | O=S(=O)(c1cccc(F)c1)c1ccc2c(c1)O[C@H](CN1CCC1)CO2 (stereo in doubt) [Compound 16, 1-[7-(3-Fluoro-benzenesulfonyl)-2,3-dihydro-benzo[1,4]dioxin-2-ylmethyl]-azetidine] |
| 193 to 196.9 °C | COCCNC[C@@H]1COc2ccc(S(=O)(=O)c3cccc(F)c3)cc2O1 (stereo in doubt) [Compound 17, [7-(3-Fluoro-benzenesulfonyl)-2,3-dihydro-benzo[1,4]dioxin-2-ylmethyl]-(2-methoxy-ethyl)-amine] |
| 220.9 to 224.9 °C | O=S(=O)(c1ccccc1)c1ccc2c(c1)O[C@@H](CNCc1ccccc1)CO2 (stereo in doubt) [Compound 21, (7-Benzenesulfonyl-2,3-dihydro-benzo[1,4]dioxin-2-ylmethyl)-benzyl-amine] |
| 232 to 233.5 °C | CN(C)C[C@H]1COc2ccc(S(=O)(=O)c3ccccc3)cc2O1 (stereo in doubt) [Compound 23, (7-Benzenesulfonyl-2,3-dihydro-benzo[1,4]dioxin-2-ylmethyl)-dimethyl-amine] |
| 224.9 to 228.8 °C | CC(C)NC[C@H]1COc2ccc(S(=O)(=O)c3ccccc3)cc2O1 (stereo in doubt) [Compound 24, (7-Benzenesulfonyl-2,3-dihydro-benzo[1,4]dioxin-2-ylmethyl)-isopropyl-amine] |
| 169.3 to 171.9 °C | COCCNC[C@H]1COc2ccc(S(=O)(=O)c3ccccc3)cc2O1 (stereo in doubt) [Compound 26, (7-Benzenesulfonyl-2,3-dihydro-benzo[1,4]dioxin-2-ylmethyl)-(2-methoxy-ethyl)-amine] |
| 242.2 to 246.7 °C | CCNC[C@H]1COc2ccc(S(=O)(=O)c3ccccc3)cc2O1 (stereo in doubt) [Compound 27, (7-Benzenesulfonyl-2,3-dihydro-benzo[1,4]dioxin-2-ylmethyl)-ethyl-amine] |
| 99.9 to 106.1 °C | CNC[C@@H]1COc2ccc(S(=O)(=O)c3cccc(C)c3)cc2O1 (stereo in doubt) [Compound 28, Methyl-[7-(toluene-3-sulfonyl)-2,3-dihydro-benzo[1,4]dioxin-2-ylmethyl]-amine] |
| 169 to 170.8 °C | CNC[C@@H]1COc2ccc(S(=O)(=O)c3ccccc3C)cc2O1 (stereo in doubt) [Compound 29, Methyl-[7-(toluene-2-sulfonyl)-2,3-dihydro-benzo[1,4]dioxin-2-ylmethyl]-amine] |
| 279.2 to 279.4 °C | O=S(=O)(c1ccccc1)c1ccc2c(c1)O[C@@H](CN1CCNCC1)CO2 (stereo in doubt) [Compound 30, 1-(7-Benzenesulfonyl-2,3-dihydro-benzo[1,4]dioxin-2-ylmethyl)-piperazine] |
| 126.5 to 128.3 °C | N=C(N)NC[C@H]1COc2ccc(S(=O)(=O)c3ccccc3)cc2O1 (stereo in doubt) [Compound 31, N-(7-Benzenesulfonyl-2,3-dihydro-benzo[1,4]dioxin-2-ylmethyl)-guanidine] |
| 199.2 to 200.8 °C | CN(O)C[C@H]1COc2ccc(S(=O)(=O)c3ccccc3)cc2O1 (stereo in doubt) [Compound 33, N-(7-Benzenesulfonyl-2,3-dihydro-benzo[1,4]dioxin-2-ylmethyl)-N-methylhydroxylamine] |
| 88 to 90 °C | O=S(=O)(c1ccccc1)c1ccc2c(c1)O[C@@H](Cn1ccnc1)CO2 (stereo in doubt) [Compound 34, 1-(7-Benzenesulfonyl-2,3-dihydro-benzo[1,4]dioxin-2-ylmethyl)-1H-imidazole] |
| 94.7 to 96.4 °C | O=S(=O)(c1ccccc1)c1ccc2c(c1)O[C@@H](CN1CCC(O)C1)CO2 (stereo in doubt) [Compound 37, 1-(7-Benzenesulfonyl-2,3-dihydro-benzo[1,4]dioxin-2-ylmethyl)-pyrrolidin-3-ol] |
| 190.6 to 192.1 °C | CNC[C@H]1COc2ccc(S(=O)(=O)c3cccc(C#N)c3)cc2O1 (stereo in doubt) [Compound 38, 3-(3-Methylaminomethyl-2,3-dihydro-benzo[1,4]dioxine-6-sulfonyl)-benzonitrile] |
| 104.9 to 105.7 °C | NC(=O)NC[C@H]1COc2ccc(S(=O)(=O)c3ccccc3)cc2O1 (stereo in doubt) [Compound 40, (7-Benzenesulfonyl-2,3-dihydro-benzo[1,4]dioxin-2-ylmethyl)-urea] |

biological target: T1, recombinant human 5-HT6 receptor (Homo sapiens, UniProt P50406); experiment: Radioligand binding, [3H]LSD competition in HEK293 cell membranes; details: [3H]LSD displacement, 37° C., pH 7.4, read-out: pKi for the 5-HT6 receptor (converted)
T1 construct: expressed in transfected cells
T1 sequence (P50406 whole entry): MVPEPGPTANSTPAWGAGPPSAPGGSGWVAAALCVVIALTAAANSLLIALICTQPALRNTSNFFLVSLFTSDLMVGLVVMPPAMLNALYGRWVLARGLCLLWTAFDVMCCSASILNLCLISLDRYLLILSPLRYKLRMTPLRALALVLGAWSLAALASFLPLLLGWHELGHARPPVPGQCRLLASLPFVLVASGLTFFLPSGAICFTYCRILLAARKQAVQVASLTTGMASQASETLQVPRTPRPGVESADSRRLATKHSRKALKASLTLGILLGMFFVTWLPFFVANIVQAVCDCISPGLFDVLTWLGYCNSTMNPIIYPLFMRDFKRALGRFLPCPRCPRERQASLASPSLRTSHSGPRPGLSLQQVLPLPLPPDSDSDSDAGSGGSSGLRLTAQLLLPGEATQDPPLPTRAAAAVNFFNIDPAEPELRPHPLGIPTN
Method: The binding activity of compounds of this invention in vitro was determined as follows. Duplicate determinations of 5-HT6 ligand affinity were made by competing for binding of [^3H]LSD in cell membranes derived from HEK293 cells stably expressing recombinant human 5-HT6 receptor. Duplicate determinations of 5-HT2A ligand affinity were made by competing for binding of [^3H]Ketanserin (3-(2-(4-(4-fluorobenzoyl)piperidinol)ethyl)-2,4(1H,3H)-quinazolinedione) in cell membranes derived from CHO—K1 cells stably expressing recombinant human 5-HT2A receptor. Membranes were prepared from HEK 293 cell lines by the method described by Monsma et al., Molecular Pharmacology, Vol. 43 pp. 320-327 (1993), and from CHO—K1 cell lines as described by Bonhaus et al., Br J Pharmacol. June;1 15(4):622-8 (1995).
For estimation of affinity at the 5-HT6 receptor, all determinations were made in assay buffer containing 50 mM Tris-HCl, 10 mM MgSO4, 0.5 mM EDTA, 1 mM ascorbic acid, pH 7.4 at 37° C., in a 250 microliter reaction volume. […]
Assay tubes containing [^3H] […] LSD or [^3H]Ketanserin were determined as radioactive counts per minute using Packard TopCount.
Displacement of [^3H]LSD or [^3H]Ketanserin from the binding sites was quantified by fitting concentration-binding data to a 4-parameter logistic equation: […]

| Ki | Compound |
| --- | --- |
| ~0.166 nM | CNC[C@@H]1COc2ccc(S(=O)(=O)c3ccccc3)cc2O1 [(7-Benzenesulfonyl-2,3-dihydro-benzo[1,4]dioxin-2-(R)-ylmethyl)-methyl-amine] |
